# Measurements published in PubChem BioAssay (NCI).
#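 Method: 48-hour compound exposure of cells in 96-well plates, five concentrations, linear interpolation of endpoints. GI50 is the concentration that inhibits growth by half. TGI marks complete inhibition of growth.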
# Assays:
# Assay in all cases: DTP human tumour cell line panel, 48 h
# NCI-H226 lung = system: NCI-H226 lung
# UO-31 renal = system: UO-31 renal
# DMS 273 small cell lung = system: DMS 273 small cell lung
# OVCAR-5 ovarian = system: OVCAR-5 ovarian
# SNB-78 CNS = system: SNB-78 CNS
# HOP-62 NSCLC = system: HOP-62 NSCLC
# IGROV1 ovarian = system: IGROV1 ovarian
# OVCAR-8 ovarian = system: OVCAR-8 ovarian
# SF-268 CNS = system: SF-268 CNS
# COLO 205 colon = system: COLO 205 colon
# TK-10 renal = system: TK-10 renal
# SW-620 colon = system: SW-620 colon
# LXFL 529 NSCLC = system: LXFL 529 NSCLC
# K-562 leukemia = system: K-562 leukemia
# KM12 colon = system: KM12 colon
# CAKI-1 renal = system: CAKI-1 renal
# ACHN renal = system: ACHN renal
# OVCAR-4 ovarian = system: OVCAR-4 ovarian
# A498 renal = system: A498 renal
# SF-295 CNS = system: SF-295 CNS
# SR leukemia = system: SR leukemia
# UACC-257 melanoma = system: UACC-257 melanoma
# SNB-19 CNS = system: SNB-19 CNS
# DLD-1 colon = system: DLD-1 colon
# SNB-75 CNS = system: SNB-75 CNS
# U251 CNS = system: U251 CNS
# EKVX NSCLC = system: EKVX NSCLC
# SK-MEL-28 melanoma = system: SK-MEL-28 melanoma
# 786-0 renal = system: 786-0 renal
# MALME-3M melanoma = system: MALME-3M melanoma
# DMS 114 small cell lung = system: DMS 114 small cell lung
# OVCAR-3 ovarian = system: OVCAR-3 ovarian
# CCRF-CEM leukemia = system: CCRF-CEM leukemia
# HOP-18 NSCLC = system: HOP-18 NSCLC
# HL-60(TB) leukemia = system: HL-60(TB) leukemia
# MOLT-4 leukemia = system: MOLT-4 leukemia
# KM20L2 colon = system: KM20L2 colon
# RXF-631 renal = system: RXF-631 renal
# LOX IMVI melanoma = system: LOX IMVI melanoma
# NCI-H460 lung = system: NCI-H460 lung
# SK-OV-3 ovarian = system: SK-OV-3 ovarian
# HOP-92 NSCLC = system: HOP-92 NSCLC
# A549 NSCLC = system: A549 NSCLC
# M19-MEL melanoma = system: M19-MEL melanoma
# HCC-2998 colon = system: HCC-2998 colon
# RPMI-8226 leukemia = system: RPMI-8226 leukemia
# HT29 colon = system: HT29 colon
# SF-539 CNS = system: SF-539 CNS
# M14 melanoma = system: M14 melanoma
# SK-MEL-2 melanoma = system: SK-MEL-2 melanoma
# HCT-15 colon = system: HCT-15 colon
# NCI-H23 lung = system: NCI-H23 lung
# NCI-H522 lung = system: NCI-H522 lung
# HCT-116 colon = system: HCT-116 colon
# SK-MEL-5 melanoma = system: SK-MEL-5 melanoma
# RXF 393 renal = system: RXF 393 renal
# UACC-62 melanoma = system: UACC-62 melanoma
# SN12C renal = system: SN12C renal
# XF 498 CNS = system: XF 498 CNS
smiles,measurement,setting,value
CC(=O)NNc1nc(C)c(C(=O)NNC(=O)C(=O)Nc2ccc(C)cc2[N+](=O)[O-])s1,TGI,NCI-H226 lung,> 100 µM
same,TGI,UO-31 renal,> 100 µM
same,TGI,DMS 273 small cell lung,> 100 µM
same,TGI,OVCAR-5 ovarian,> 100 µM
same,TGI,SNB-78 CNS,> 100 µM
same,TGI,HOP-62 NSCLC,> 100 µM
same,TGI,IGROV1 ovarian,> 100 µM
same,TGI,OVCAR-8 ovarian,> 100 µM
same,TGI,SF-268 CNS,> 100 µM
same,TGI,COLO 205 colon,> 100 µM
same,TGI,TK-10 renal,> 100 µM
same,TGI,SW-620 colon,> 100 µM
same,TGI,LXFL 529 NSCLC,> 100 µM
same,TGI,K-562 leukemia,> 100 µM
same,TGI,KM12 colon,> 100 µM
same,TGI,CAKI-1 renal,> 100 µM
same,TGI,ACHN renal,> 100 µM
same,TGI,OVCAR-4 ovarian,> 100 µM
same,TGI,A498 renal,> 100 µM
same,TGI,SF-295 CNS,> 100 µM
same,TGI,SR leukemia,> 100 µM
same,TGI,UACC-257 melanoma,> 100 µM
same,TGI,SNB-19 CNS,> 100 µM
same,TGI,DLD-1 colon,> 100 µM
same,TGI,SNB-75 CNS,> 100 µM
same,TGI,U251 CNS,> 100 µM
same,TGI,EKVX NSCLC,> 100 µM
same,TGI,SK-MEL-28 melanoma,> 100 µM
same,TGI,786-0 renal,> 100 µM
same,TGI,MALME-3M melanoma,> 100 µM
same,TGI,DMS 114 small cell lung,> 100 µM
same,TGI,OVCAR-3 ovarian,> 100 µM
same,TGI,CCRF-CEM leukemia,> 100 µM
same,TGI,HOP-18 NSCLC,> 100 µM
same,TGI,HL-60(TB) leukemia,> 100 µM
same,TGI,MOLT-4 leukemia,> 100 µM
same,TGI,KM20L2 colon,> 100 µM
same,TGI,RXF-631 renal,> 100 µM
same,TGI,LOX IMVI melanoma,> 100 µM
same,TGI,NCI-H460 lung,> 100 µM
same,TGI,SK-OV-3 ovarian,> 100 µM
same,TGI,HOP-92 NSCLC,> 100 µM
same,TGI,A549 NSCLC,> 100 µM
same,TGI,M19-MEL melanoma,> 100 µM
same,TGI,HCC-2998 colon,> 100 µM
same,TGI,RPMI-8226 leukemia,> 100 µM
same,TGI,HT29 colon,> 100 µM
same,TGI,SF-539 CNS,> 100 µM
same,TGI,M14 melanoma,> 100 µM
same,TGI,SK-MEL-2 melanoma,> 100 µM
same,TGI,HCT-15 colon,> 100 µM
same,TGI,NCI-H23 lung,> 100 µM
same,TGI,NCI-H522 lung,78 µM
same,TGI,HCT-116 colon,> 100 µM
same,TGI,SK-MEL-5 melanoma,> 100 µM
same,TGI,RXF 393 renal,> 100 µM
same,TGI,UACC-62 melanoma,> 100 µM
same,TGI,SN12C renal,> 100 µM
COc1cc2c(cc1O)CCN[C@@]21CS[C@H]2c3c(OC(C)=O)c(C)c4c(c3C(COC1=O)N1C2C2NC(Cc3cc(C)c(OC)c(O)c32)[C@@H]1C#N)OCO4 (some centres undefined),TGI,NCI-H226 lung,< 0.01 µM
same,TGI,HOP-62 NSCLC,0.0107 µM
same,TGI,SF-268 CNS,0.104 µM
same,TGI,TK-10 renal,61 µM
same,TGI,SW-620 colon,1.06 µM
same,TGI,LXFL 529 NSCLC,0.111 µM
same,TGI,ACHN renal,0.721 µM
same,TGI,OVCAR-4 ovarian,< 0.01 µM
same,TGI,SR leukemia,> 100 µM
same,TGI,SNB-19 CNS,1.87 µM
same,TGI,DLD-1 colon,0.271 µM
same,TGI,SNB-75 CNS,< 0.01 µM
same,TGI,U251 CNS,0.444 µM
same,TGI,XF 498 CNS,< 0.01 µM
same,TGI,EKVX NSCLC,0.125 µM
same,TGI,SK-MEL-28 melanoma,0.0268 µM
same,TGI,786-0 renal,0.162 µM
same,TGI,MALME-3M melanoma,< 0.01 µM
same,TGI,DMS 114 small cell lung,< 0.01 µM
same,TGI,CCRF-CEM leukemia,0.0525 µM
same,TGI,HL-60(TB) leukemia,0.0209 µM
same,TGI,MOLT-4 leukemia,< 0.01 µM
same,TGI,KM20L2 colon,< 0.01 µM
same,TGI,M19-MEL melanoma,< 0.01 µM
same,TGI,HCC-2998 colon,< 0.01 µM
same,TGI,RPMI-8226 leukemia,0.017 µM
same,TGI,HT29 colon,0.16 µM
same,TGI,SF-539 CNS,< 0.01 µM
same,TGI,M14 melanoma,< 0.01 µM
same,TGI,SK-MEL-2 melanoma,< 0.01 µM
same,TGI,NCI-H23 lung,< 0.01 µM
same,TGI,HCT-116 colon,1.14 µM
same,TGI,SK-MEL-5 melanoma,< 0.01 µM
same,TGI,RXF 393 renal,< 0.01 µM
same,TGI,UACC-62 melanoma,< 0.01 µM
same,TGI,SN12C renal,0.115 µM
CCC[CH2][Sn]1([CH2]CCC)[O]C(=O)c2cccnc2[S]1,GI50,NCI-H226 lung,15.3 µM
same,TGI,NCI-H226 lung,29.1 µM
same,GI50,UO-31 renal,8.59 µM
same,TGI,UO-31 renal,20.9 µM
same,GI50,DMS 273 small cell lung,3.38 µM
same,TGI,DMS 273 small cell lung,13.7 µM
same,GI50,SNB-78 CNS,1.88 µM
same,TGI,SNB-78 CNS,5.76 µM
same,GI50,HOP-62 NSCLC,28.9 µM
same,TGI,HOP-62 NSCLC,43.7 µM
same,GI50,IGROV1 ovarian,11.2 µM
same,TGI,IGROV1 ovarian,23.5 µM
same,GI50,OVCAR-8 ovarian,4.04 µM
same,TGI,OVCAR-8 ovarian,14.5 µM
same,GI50,COLO 205 colon,3.34 µM
same,TGI,COLO 205 colon,9.33 µM
same,GI50,TK-10 renal,3.71 µM
same,TGI,TK-10 renal,12.1 µM
same,GI50,SW-620 colon,1.88 µM
same,TGI,SW-620 colon,4.31 µM
same,GI50,LXFL 529 NSCLC,1.33 µM
same,TGI,LXFL 529 NSCLC,2.98 µM
same,GI50,K-562 leukemia,1.65 µM
same,TGI,K-562 leukemia,5.48 µM
same,GI50,KM12 colon,6.92 µM
same,TGI,KM12 colon,19.6 µM
same,GI50,CAKI-1 renal,1.76 µM
same,TGI,CAKI-1 renal,8.05 µM
same,GI50,ACHN renal,3.51 µM
same,TGI,ACHN renal,11.7 µM
same,GI50,OVCAR-4 ovarian,10.1 µM
same,TGI,OVCAR-4 ovarian,21.9 µM
same,GI50,A498 renal,2.37 µM
same,TGI,A498 renal,5.3 µM
same,GI50,SF-295 CNS,3.19 µM
same,TGI,SF-295 CNS,12 µM
same,GI50,SR leukemia,1.4 µM
same,TGI,SR leukemia,5.65 µM
same,GI50,UACC-257 melanoma,2.64 µM
same,TGI,UACC-257 melanoma,6.97 µM
same,GI50,SNB-19 CNS,6.88 µM
same,TGI,SNB-19 CNS,19.5 µM
same,GI50,DLD-1 colon,3.94 µM
same,TGI,DLD-1 colon,14.5 µM
same,GI50,SNB-75 CNS,2.54 µM
same,TGI,SNB-75 CNS,7.82 µM
same,GI50,U251 CNS,1.21 µM
same,TGI,U251 CNS,5.33 µM
same,GI50,XF 498 CNS,2 µM
same,TGI,XF 498 CNS,3.5 µM
same,GI50,EKVX NSCLC,2.46 µM
same,TGI,EKVX NSCLC,11.9 µM
same,GI50,SK-MEL-28 melanoma,2.7 µM
same,TGI,SK-MEL-28 melanoma,10.6 µM
same,GI50,786-0 renal,2.55 µM
same,TGI,786-0 renal,6.8 µM
same,GI50,MALME-3M melanoma,1.49 µM
same,TGI,MALME-3M melanoma,4.31 µM
same,GI50,DMS 114 small cell lung,1.64 µM
same,TGI,DMS 114 small cell lung,3.83 µM
same,GI50,OVCAR-3 ovarian,3.49 µM
same,TGI,OVCAR-3 ovarian,12.5 µM
same,GI50,CCRF-CEM leukemia,0.058 µM
same,TGI,CCRF-CEM leukemia,1.02 µM
same,GI50,HL-60(TB) leukemia,1.42 µM
same,TGI,HL-60(TB) leukemia,3.31 µM
same,GI50,MOLT-4 leukemia,1.87 µM
same,TGI,MOLT-4 leukemia,7.71 µM
same,GI50,KM20L2 colon,7.72 µM
same,TGI,KM20L2 colon,21 µM
same,GI50,LOX IMVI melanoma,1.76 µM
same,TGI,LOX IMVI melanoma,3.6 µM
same,GI50,NCI-H460 lung,11.4 µM
same,TGI,NCI-H460 lung,23.6 µM
same,GI50,SK-OV-3 ovarian,16.9 µM
same,TGI,SK-OV-3 ovarian,31.4 µM
same,GI50,HOP-92 NSCLC,3.37 µM
same,TGI,HOP-92 NSCLC,12.1 µM
same,GI50,A549 NSCLC,16.8 µM
same,TGI,A549 NSCLC,31.6 µM
same,GI50,M19-MEL melanoma,3.87 µM
same,TGI,M19-MEL melanoma,15.4 µM
same,GI50,HCC-2998 colon,2.39 µM
same,TGI,HCC-2998 colon,6.15 µM
same,GI50,RPMI-8226 leukemia,1.48 µM
same,TGI,RPMI-8226 leukemia,5.29 µM
same,GI50,HT29 colon,11.1 µM
same,TGI,HT29 colon,24.7 µM
same,GI50,SF-539 CNS,3.17 µM
same,TGI,SF-539 CNS,8.39 µM
same,GI50,M14 melanoma,3.22 µM
same,TGI,M14 melanoma,10.1 µM
same,GI50,SK-MEL-2 melanoma,2.11 µM
same,TGI,SK-MEL-2 melanoma,4.63 µM
same,GI50,HCT-15 colon,2.21 µM
same,TGI,HCT-15 colon,4.98 µM
same,GI50,NCI-H23 lung,2.13 µM
same,TGI,NCI-H23 lung,5.41 µM
same,GI50,NCI-H522 lung,0.348 µM
same,TGI,NCI-H522 lung,1.57 µM
same,GI50,HCT-116 colon,5.56 µM
same,TGI,HCT-116 colon,17.9 µM
same,GI50,SK-MEL-5 melanoma,4.96 µM
same,TGI,SK-MEL-5 melanoma,17 µM
same,GI50,RXF 393 renal,1.66 µM
same,TGI,RXF 393 renal,3.2 µM
same,GI50,UACC-62 melanoma,1.87 µM
same,TGI,UACC-62 melanoma,5.53 µM
same,GI50,SN12C renal,3.8 µM
same,TGI,SN12C renal,13.2 µM
